# Assay results reported in PubChem BioAssay (NCI).
#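 Step 1: Grow cells in 96-well plates. Step 2: Expose to compound for 48 hours at 5 concentrations. Step 3: Interpolate endpoints linearly; if unreached, use highest concentration. GI50 = concentration required for 50% inhibition of growth. TGI: total growth inhibition.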
# Assays:
# Test in all cases: growth of human tumour cells (NCI), 48 h
# [1] = test system: MALME-3M melanoma
# [2] = test system: DU-145 prostate
# [3] = test system: SK-MEL-5 melanoma
# [4] = test system: NCI-H23 lung
# [5] = test system: K-562 leukemia
# [6] = test system: NCI/ADR-RES ovarian
# [7] = test system: SK-MEL-2 melanoma
# [8] = test system: T-47D breast
# [9] = test system: IGROV1 ovarian
# [10] = test system: MDA-MB-231 breast
# [11] = test system: SN12C renal
# [12] = test system: CAKI-1 renal
# [13] = test system: COLO 205 colon
# [14] = test system: U251 CNS
# [15] = test system: KM12 colon
# [16] = test system: SK-OV-3 ovarian
# [17] = test system: MCF7 breast
# [18] = test system: SK-MEL-28 melanoma
# [19] = test system: NCI-H226 lung
# [20] = test system: MOLT-4 leukemia
# [21] = test system: SF-295 CNS
# [22] = test system: HS 578T breast
# [23] = test system: OVCAR-5 ovarian
# [24] = test system: CCRF-CEM leukemia
# [25] = test system: UACC-62 melanoma
# [26] = test system: HCC-2998 colon
# [27] = test system: UACC-257 melanoma
# [28] = test system: HCT-15 colon
# [29] = test system: PC-3 prostate
# [30] = test system: SF-539 CNS
# [31] = test system: SW-620 colon
# [32] = test system: NCI-H460 lung
# [33] = test system: HL-60(TB) leukemia
# [34] = test system: HOP-92 NSCLC
# [35] = test system: M14 melanoma
# [36] = test system: SNB-75 CNS
# [37] = test system: MDA-MB-435
# [38] = test system: UO-31 renal
# [39] = test system: TK-10 renal
# [40] = test system: SR leukemia
# [41] = test system: ACHN renal
# [42] = test system: BT-549 breast
# [43] = test system: HOP-62 NSCLC
# [44] = test system: OVCAR-4 ovarian
# [45] = test system: HT29 colon
# [46] = test system: RPMI-8226 leukemia
smiles,measurement,setting,value
COc1ccc(-c2ccc(-c3ccc(C(=N)N)c(F)c3)s2)cc1,GI50,[1],2290 nM
same,TGI,[1],4.7 µM
same,GI50,[2],564 nM
same,TGI,[2],1760 nM
same,GI50,[3],1230 nM
same,TGI,[3],2830 nM
same,GI50,[4],1430 nM
same,TGI,[4],3.35 µM
same,GI50,[5],216 nM
same,TGI,[5],573 nM
same,GI50,[6],1090 nM
same,TGI,[6],3.44 µM
same,GI50,[7],2010 nM
same,TGI,[7],4.1 µM
same,GI50,[8],185 nM
same,TGI,[8],413 nM
same,GI50,[9],1840 nM
same,TGI,[9],4.51 µM
same,GI50,[10],215 nM
same,TGI,[10],515 nM
same,GI50,[11],622 nM
same,TGI,[11],1520 nM
same,GI50,[12],1540 nM
same,TGI,[12],2990 nM
same,GI50,[13],184 nM
same,TGI,[13],359 nM
same,GI50,[14],184 nM
same,TGI,[14],368 nM
same,GI50,[15],291 nM
same,TGI,[15],861 nM
same,GI50,[16],1570 nM
same,TGI,[16],3.16 µM
same,GI50,[17],212 nM
same,TGI,[17],502 nM
same,GI50,[18],1510 nM
same,TGI,[18],3.19 µM
same,GI50,[19],1990 nM
same,TGI,[19],4.64 µM
same,GI50,[20],495 nM
same,TGI,[20],1870 nM
same,GI50,[21],741 nM
same,TGI,[21],2120 nM
same,GI50,[22],1900 nM
same,TGI,[22],4.71 µM
same,GI50,[23],323 nM
same,TGI,[23],1120 nM
same,GI50,[24],286 nM
same,TGI,[24],853 nM
same,GI50,[25],1800 nM
same,TGI,[25],3.7 µM
same,GI50,[26],230 nM
same,TGI,[26],478 nM
same,GI50,[27],1340 nM
same,TGI,[27],2940 nM
same,GI50,[28],211 nM
same,TGI,[28],528 nM
same,GI50,[29],787 nM
same,TGI,[29],2290 nM
same,GI50,[30],793 nM
same,TGI,[30],2630 nM
same,GI50,[31],222 nM
same,TGI,[31],541 nM
same,GI50,[32],261 nM
same,TGI,[32],690 nM
same,GI50,[33],215 nM
same,TGI,[33],462 nM
same,GI50,[34],867 nM
same,TGI,[34],2810 nM
same,GI50,[35],651 nM
same,TGI,[35],1910 nM
same,GI50,[36],1620 nM
same,TGI,[36],3.31 µM
same,GI50,[37],310 nM
same,TGI,[37],881 nM
same,GI50,[38],1010 nM
same,TGI,[38],2720 nM
same,GI50,[39],720 nM
same,TGI,[39],1910 nM
same,GI50,[40],269 nM
same,TGI,[40],787 nM
same,GI50,[41],209 nM
same,TGI,[41],448 nM
same,GI50,[42],1570 nM
same,TGI,[42],3.24 µM
same,GI50,[43],1530 nM
same,TGI,[43],3.07 µM
same,GI50,[44],296 nM
same,TGI,[44],868 nM
same,GI50,[45],250 nM
same,TGI,[45],707 nM
same,GI50,[46],369 nM
same,TGI,[46],1800 nM
